According to US20020002171A1, “Materials and methods for killing nematodes and nematode eggs” (priority 2000, published 2002):

System: Caenorhabditis elegans
Assay: C. elegans L1 nematicidal dose response in 96-well plates, 5 day visual score (Example 2; same procedure for Example 7, Table 3)
Format: in vivo
Design: key to 5 Day Visual Score V1 / 5 Day Visual Score V2 / 5 Day Visual Score V3 / 5 Day Visual Score V4 / 5 Day Visual Score V6 / 5 Day Visual Score V5 / Initial HTS Run Visual Score / Follow-up HTS Run Visual Score: Dead: only stiff L1s (no movement); Dead (L4): worms are dead, but at a later larval stage; majority of worms are L1 (based on size) worms move when plate is tapped; majority of worms are L2 (based on size); majority of worms are L3 (based on size); majority of worms are L4 (based on size); AD: majority of worms are adult; #AD: 5 adult worms or less; B!: sterile (0-25 progeny); B: low broodsize (25-100 progeny); ˜B: moderate broodsize (100-250 progeny); <: reduced broodsize (250-500 progeny); OK: no effect (˜1000+ progeny)
Settings: for 5 Day Visual Score V1 / 5 Day Visual Score V2 / 5 Day Visual Score V4 / 5 Day Visual Score V5 / 5 Day Visual Score V6 / 5 Day Visual Score V3: dose response; for 5 Day Visual Score V1: dilution V1, 5 day; for 5 Day Visual Score V2: dilution V2, 5 day; for 5 Day Visual Score V4: dilution V4, 5 day; for 5 Day Visual Score V5: dilution V5, 5 day; for 5 Day Visual Score V6: dilution V6, 5 day; for 5 Day Visual Score V3: dilution V3, 5 day
In short: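 Scoring was by eye at 100× on day 5, after incubation at 20° C, of 20 C. elegans L1s per well fed 1% E. coli HB101 in NGM. Compound columns V1–V6 spanned 70 μM to 0.3 μM in 3-fold steps, with 1.4% DMSO in the top well and as control.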

SMILES | Follow-up HTS Run % Run [%] | Follow-up HTS Run mOD [mOD] | Initial HTS Run % Run [%] | Initial HTS Run Visual Score | Initial HTS Run mOD [mOD] | 5 Day Visual Score V1 | 5 Day Visual Score V2 | 5 Day Visual Score V4 | 5 Day Visual Score V5 | 5 Day Visual Score V6 | 5 Day Visual Score V3 | Follow-up HTS Run Visual Score
CCOC(=O)CCN(Cc1ccccc1)c1nc(NCc2ccc(C(F)(F)F)cc2)ns1 [compound 313] | 106 | 170 | 97 | L2 - (Dead L3) | 107 | Dead(L2/L3) | Dead(L3) | < (reduced broodsize (250-500 progeny)) | OK (no effect (˜1000+ progeny)) | OK (no effect (˜1000+ progeny)) |  | 
CN(CCc1ccccc1)c1nc(NCc2ccc(C(F)(F)F)cc2)ns1 [compound 314] | 103 | 166 | 106 |  | 117 | L1 | L4#AD/B! and L1 |  |  | OK (no effect (˜1000+ progeny)) | L1 | 
CN(Cc1ccccc1)c1nc(NCc2ccc(C(F)(F)F)cc2)ns1 [compound 315] | 118 | 190 | 112 |  | 123 | L1 |  | ˜B (moderate broodsize (100-250 progeny)) | OK (no effect (˜1000+ progeny)) | < (reduced broodsize (250-500 progeny)) |  | 
OCC1CCCN1c1nc(NCc2ccc(C(F)(F)F)cc2)ns1 (centres unmarked) [compound 316] | 106 | 171 | 100 | Dead(L3) | 110 | Dead | Dead(L3) | < (reduced broodsize (250-500 progeny)) | OK (no effect (˜1000+ progeny)) | OK (no effect (˜1000+ progeny)) | ˜B (moderate broodsize (100-250 progeny)) | L2
COc1ccc(CCN(C)c2nc(NCc3ccc(C(F)(F)F)cc3)ns2)cc1OC [compound 317] | 111 | 179 | 108 |  | 119 | Dead |  | OK (no effect (˜1000+ progeny)) | OK (no effect (˜1000+ progeny)) | OK (no effect (˜1000+ progeny)) | OK (no effect (˜1000+ progeny)) | L2
Cc1cccc(C)c1N1CCN(c2nc(NCc3ccccc3C(F)(F)F)ns2)CC1 [compound 318] | 111 | 178 | 101 | B!-Clear-Few Eggs | 111 | B (low broodsize (25-100 progeny)) | ˜B (moderate broodsize (100-250 progeny)) | OK (no effect (˜1000+ progeny)) | OK (no effect (˜1000+ progeny)) | OK (no effect (˜1000+ progeny)) | OK (no effect (˜1000+ progeny)) | B (low broodsize (25-100 progeny))
CCCCN(CC)c1nc(NCc2ccc(C(F)(F)F)cc2)ns1 [compound 319] | 127 | 205 | 121 | L2 | 133 |  | ˜B (moderate broodsize (100-250 progeny)) | OK (no effect (˜1000+ progeny)) | OK (no effect (˜1000+ progeny)) | OK (no effect (˜1000+ progeny)) | OK (no effect (˜1000+ progeny)) | L2
